In patent publication US12479816B2, “20-HETE formation inhibitors” (UNIVERSITY OF PITTSBURGH—OF THE COMMONWEALTH SYSTEM OF …, priority 2019, dated 2025):
Where two headings read alike, the source gives them in different places.

Experiments:
[1] = test system: 20-HETE formation (CYP4) in HLM; test: Inhibition of 20-HETE formation at 250 or 500 nM in HLM microsomal incubations; format: biochemical, human; conditions: 500 nM compound; HLM 300 μg/ml, AA 100 μM, 20 min
In short: (§1)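 Protein 300 μg/ml (microsomes) / 25 pmol/mL (rCYP4F2); AA 100 μM; NADPH 1 mM start; KPi 0.12 M + 5 mM MgCl2; 20 min, 37° C. Read-out: 20-HETE by UPLC-MS/MS (d6 IS), % of vehicle, n=3.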

rCYP4F2 = molecular target: T1, rCYP4F2 (Homo sapiens, UniProt P78329); test: Inhibition of 20-HETE formation at 250 or 500 nM in rCYP4F2 incubations; format: biochemical; conditions: 500 nM compound; rCYP4F2 25 pmol/mL; read-out: rCYP4F2 % inh. @ 500 nM
T1 sequence (P78329 5-520): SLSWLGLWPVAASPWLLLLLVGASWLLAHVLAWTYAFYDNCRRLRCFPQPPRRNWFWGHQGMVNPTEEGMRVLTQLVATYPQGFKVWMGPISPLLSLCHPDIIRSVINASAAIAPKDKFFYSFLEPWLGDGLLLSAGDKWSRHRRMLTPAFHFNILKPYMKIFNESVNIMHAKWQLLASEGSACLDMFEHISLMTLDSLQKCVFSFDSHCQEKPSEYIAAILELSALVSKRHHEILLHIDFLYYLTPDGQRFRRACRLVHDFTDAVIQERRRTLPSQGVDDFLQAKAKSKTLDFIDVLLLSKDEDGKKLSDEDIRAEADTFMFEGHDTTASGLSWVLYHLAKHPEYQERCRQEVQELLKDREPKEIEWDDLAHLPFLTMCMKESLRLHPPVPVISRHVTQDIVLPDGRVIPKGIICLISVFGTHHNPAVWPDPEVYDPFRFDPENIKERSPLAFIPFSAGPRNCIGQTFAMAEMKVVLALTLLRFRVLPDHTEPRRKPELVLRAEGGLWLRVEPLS
In short: as §1

MDR1 (P-gp) = test: BBB penetration potential, MDR1-MDCK permeability; format: in vitro ADME; conditions: dog; for Papp A→B at 120 min, 5 μM: apical to basolateral, pH 7.4, read-out: BBB penetration potential MDCK A-B 10−6 cm/s; for Papp B→A at 120 min, 5 μM: basolateral to apical, pH 7.4, read-out: BBB penetration potential MDCK B-A 10−6 cm/s
Method: BBB penetration potential assessment data in Table 1 was obtained as follows. MDR1-MDCK cell monolayers were grown to confluence on collagen-coated, microporous membranes in 12-well assay plates. Atenolol, propranolol and digoxin were used as control to assess plate quality. The permeability assay buffer was Hanks' balanced salt solution containing 10 mM HEPES and 15 mM glucose at a pH of 7.4. The buffer in the receiver chamber also contained 1% bovine serum albumin. The dosing solution concentration was 5 μM of test article in the assay buffer. Cell monolayers were dosed on the apical side (A-to-B) or basolateral side (B-to-A) and incubated at 37° C. with 5% CO2 in a humidified incubator. Samples were taken from the donor and receiver chambers at 120 minutes. Each determination was performed in duplicate the flux of lucifer yellow was also measured post-experimentally for each monolayer to ensure no damage was inflicted to the cell monolayers during the flux period. All samples were assayed by LC-MS/MS using electrospray ionization using a PE SCIEX API 4000 spectrometer and total run time of 1 min. Analytical method/conditions were: Liquid Chromatography Column: Waters ACQUITY UPLC BEH Phenyl 30×2.1 mm, 1.7 m; M.P. Buffer: 25 mM ammonium formate buffer, pH 3.5; Aqueous Reservoir (A): 90% water, 10% buffer; Organic Reservoir (B): 90% acetonitrile, 10% buffer; Flow Rate: 0.7 mL/minute; gradient program: 99% A (t=0 min), 1% A (t=0.65 min), 1% A (t=0.75 min), 99% A (t=0.8 min), 99% A (t=1 min); 5 μL injection volume
The apparent permeability (Papp) and percent recovery were calculated as follows: Papp=(dCr/dt)×Vr/(A×CA) (1) Percent Recovery=100×((Vr×Cr^final)+(Vd×Cd^final))/(Vd×CN) (2)
wherein: • dCr/dt is the slope of the cumulative concentration in the receiver compartment versus time in μMs^−1; • Vr is the volume of the receiver compartment in cm^3; • Vd is the volume of the donor compartment in cm^3; • A is the area of the insert (1.13 cm^2 for 12-well); • CA is the average of the nominal dosing concentration and the measured 120 minute donor concentration in μM; • CN is the nominal concentration of the dosing solution in μM; • Cr^final is the cumulative receiver concentration in μM at the end of the incubation period; • Cd^final is the concentration of the donor in μM at the end of the incubation period. Efflux ratio (ER) is defined as Papp (B-to-A)/Papp (A-to-B) Interpretation Brain Penetration Potential Classification: • Papp (A-to-B)≥3.0 and ER<3.0: High • Papp (A-to-B)≥3.0 and 10>ER≥3.0: Moderate • Papp (A-to-B)≥3.0 and ER≥10, or Papp (A-to-B)<3.0 Low

[2] = test system: 20-HETE formation (CYP4) in RLM; test: Inhibition of 20-HETE formation at 250 or 500 nM in RLM microsomal incubations; format: biochemical, rat; conditions: 500 nM compound; RLM 300 μg/ml
In short: as §1

[3] = Turbidometric solubility determination; format: physicochemical; conditions: PBS with 1% DMSO, aqueous buffer, kinetic from dmso stock, room temperature
In short: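 Precipitation was detected as a significant rise in absorbance at 620 nm over background, and this point set the maximum solubility. Compound was tested in PBS with 1% DMSO at final concentrations from 0 to 600 μM, in triplicate, after 2 h of shaking at room temperature.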

[4] = test system: 20-HETE formation (CYP4) in HLM; test: IC50 determination, 20-HETE formation in HLM; format: biochemical, human; conditions: HLM 300 μg/ml, AA 100 μM, 12 concentrations
Method: Microsomal incubations contained HLM, RLM (300 μg/ml), AA (100 μM), NADPH (1 mM) and test compounds at 12 concentrations (0.1 nM-50 μM) in a 1 ml total volume in microsomal incubation buffer (0.12 M potassium phosphate buffer containing 5 mM magnesium chloride). Reaction was started by adding NADPH to the incubates and was carried out at 37° C. in a shaking water bath for 20 min. Reaction was stopped by placing tubes on ice, followed by adding 12.5 μl 20-HETE-d6 as internal standard to each sample. Microsomal incubations were extracted with 3 ml ethyl ether twice, dried down under nitrogen gas and reconstituted in 125 μl 80:20 methanol:deionized H2O for analysis. 20-HETE formation was quantified using the validated UPLC-MS/MS assay described above and normalized by vehicle group. HET0016 (250 nM) was used as positive control. Incubates without NADPH group served as the negative control. IC50 was determined by fitting the dose-response curve using Graphpad Prism nonlinear regression.

[5] = test system: 20-HETE formation (CYP4) in RKM; test: Inhibition of 20-HETE formation at 250 or 500 nM in RKM microsomal incubations; format: biochemical, rat; conditions: 500 nM compound; RKM 300 μg/ml
Method: To screen the inhibitory effects against 20-HETE formation, compounds were screened in HLM, RLM, RKM and rCYP4F2 microsomal incubations. Compounds dissolved in either 100% methanol or 100% DMSO to yield 10 mM stock solution. Microsomal incubations containing HLM, RLM, RKM (300 μg/ml) or rCYP4F2 (25 pmol/mL), AA (100 μM), NADPH (1 mM) treated with test compounds at various concentrations (500 nM or 250 nM) in a 1 ml total volume in incubation buffer (0.12 M potassium phosphate buffer containing 5 mM magnesium chloride). Reaction was started by adding NADPH to the incubates and was carried out at 37° C. in a shaking water bath for 20 min. Reaction was stopped by placing tubes on ice, followed by adding 125 μl 20-HETE-d6 as internal standard to each sample. Microsomal incubations were extracted with 3 ml ethyl ether twice, dried down under nitrogen gas and reconstituted in 125 μl 80:20 methanol:deionized H2O for analysis. 20-HETE formation was quantified using a validated UPLC-MS/MS assay and normalized by vehicle group. Each compound had three replications (n=3). Vehicle group was used as control to calculate percentage of 20-HETE formation rate. HET0016 (250 nM) was used as positive control. Incubates without NADPH group served as the negative control. An Acquity ultra performance LC autosampler (Waters, Milford, MA) was used to isolate 20-HETE on an UPLC BEH C18, 1.7 μm (2.1×100 mm) reversed-phase column (Waters, Milford, MA) protected by a guard column (2.1×5 mm; Waters, Milford, MA) of the same packing material. Column temperature was maintained at 55° C. Mobile phases consisted of 0.005% acetic acid, 5% acetonitrile in deionized water (A) and 0.005% acetic acid in acetonitrile (B). The flow rate for mobile phases is 0.5 ml/min. The initial mixture of mobile phase was 65:35 of A and B. Mobile phase B increased at 0.4 minutes after injection from 35% to 70% in a linear gradient over 4 minutes, and again increased to 95% over 0.5 minutes where it remained for 0.3 minutes. This was followed by a linear return to initial conditions over 0.1 minutes with a 1.5 minute pre-equilibration period prior to the next sample run. Total run time was 6.4 minutes for each injection. Injection volumes were 7.5 μl. Mass spectrometric analysis was carried out using a TSQ Quantum Ultra (Thermo Fisher Scientific, San Jose, CA) triple quadrupole mass spectrometer using heated electrospray ionization (HESI). Mass spectrometer was operated in negative selective reaction monitoring (SRM) mode with unit resolutions at both Q1 and Q3 set at 0.70 Da full width at half maximum. Scan time was set at 0.01 s and collision gas pressure was 1.3 mTorr. Quantitation of 20-HETE by SRM was performed by monitoring the m/z. Analytical data was acquired and analyzed using Xcaliber 3.0 data system (ThermoFinnigan, San Jose, CA).

Structure (SMILES)	HLM % inh. @ 500 nM [1] [%]	inhibition at 0.5 µM (rCYP4F2) [%]	Papp A→B at 120 min, 5 μM (MDR1 (P-gp)) [×10⁻⁶ cm/s]	Papp B→A at 120 min, 5 μM (MDR1 (P-gp)) [×10⁻⁶ cm/s]	RLM % inh. @ 500 nM [2] [%]	solubility at 2 h ([3]; OD620, read-out: Max Solub) [µM]	IC50 [4] [µM]	RKM % inh. @ 500 nM [5] [%]	solubility at 2 h ([3]; read-out: Solubility_ug/mL) [µg/mL]
CC(Nc1ccc(C2CCN(c3cn[nH]c3)CC2)cc1)C(F)(F)F (stereo not drawn) [Compound 104, 4-(1-(1H-Pyrazol-4-yl)piperidin-4-yl)-N-(1,1,1-trifluoropropan-2-yl)aniline]	86.1	78	50.4	48.9	36.00	31			
COc1ccc(C2CCN(c3cn[nH]c3)CC2)cc1Cl [Compound 64, 4-(3-Chloro-4-methoxyphenyl)-1-(1H-pyrazol-4-yl)piperidine]	88	72	46.4	34.8	49.00	19.5			
O=C1CCCN1c1ccc(C2CCN(c3ccn[nH]3)CC2)cc1 [Compound 101, 1-(4-(1-(1H-Pyrazol-5-yl)piperidin-4-yl)phenyl)pyrrolidin-2-one]	79.00	80	33.8	46.7	48.70	158			
CC(=O)N(C)c1ccc(C2CCN(c3cn[nH]c3)CC2)c(F)c1 [Compound 69, N-(4-(1-(1H-Pyrazol-4-yl)piperidin-4-yl)-3-fluorophenyl)-N-methylacetamide]	85.6	57.9	22.3	44.4	27.70	304			
O=C(c1ccc(C2CCN(c3cn[nH]c3)CC2)c(F)c1)N1CCCC1 [Compound 81, (4-(1-(1H-Pyrazol-4-yl)piperidin-4-yl)-3-fluorophenyl)(pyrrolidin-1-yl)methanone]	83.1	66			19.30	353	0.0474		
CC(=O)Nc1ccc(C2CCN(c3ccn[nH]3)CC2)cc1 [Compound 29, N-(4-(1-(1H-Pyrazol-5-yl)piperidin-4-yl)phenyl)acetamide]	60.00	55			38.00	> 600	0.17	7.00	171
Cc1ccccc1C1CCN(c2cn[nH]c2)CC1 [Compound 36, 1-(1H-Pyrazol-4-yl)-4-(o-tolyl)piperidine]	46.00	61			0.00	752	0.65	4.00	
COc1ccc(C2CCN(c3cn[nH]c3)CC2)cn1 [Compound 32, 5-(1-(1H-Pyrazol-4-yl)piperidin-4-yl)-2-methoxypyridine]	59.00	67			0.00	391	0.13	25.00	101
Cc1cccc(C2CCN(c3ccn[nH]3)CC2)c1 [Compound 33, 1-(1H-Pyrazol-5-yl)-4-(m-tolyl)piperidine]	72.00	69			12.00		0.18	16.00	
